Assay results as given in patent US20240269304A1, “BCL-XL INHIBITOR ANTIBODY-DRUG CONJUGATES AND METHODS OF USE THEREOF” (Novartis AG, priority 2020, published 2024).
pIC50: −log10 of the molar value. Like-named read-outs stand apart in the source and are kept apart here.

What was measured:
SUDHL8 (DLBCL) = experiment: CellTiter-Glo viability 72 h, single agent or 1/1 combination, SUDHL8 (Example 9); assay type: cell-based; conditions: Homo sapiens, SU-DHL-8, single agent or 1/1 combination as labelled
Experimental: (§1) Cell lines were cultured in the media described above at 37° C. in a humidified atmosphere containing 5% CO2. Cells were seeded in 96 well clear bottom plates (96 well clear-bottom, white, Corning reference 3903) and exposed to the payloads or ADCs at single agents or in 1/1 combinations with vincristine, ABT-199 or compound A2 for 72 h (serially diluted; 9 concentrations each, triplicates). Effects of payloads or ADCs on cell viability were assessed after 3 days of incubation at 37° C./5% CO2 by quantification of cellular ATP levels using CellTiter-Glo reagent (Promega Ref: G7571) at 75 μL reagent/well. All the conditions were tested in triplicates. Luminescence was quantified on a multipurpose plate reader. IC50s were calculated using standard four-parametric curve fitting. […] Each experiment was performed at least twice, with results being reproducible.

LOUCY (T-ALL) = experiment: CellTiter-Glo viability 72 h, single agent or 1/1 combination, LOUCY (Example 9); assay type: cell-based; conditions: single agent or 1/1 combination as labelled
Experimental: as §1

HPB-ALL (T-ALL) = experiment: CellTiter-Glo viability 72 h, single agent or 1/1 combination with vincristine, ABT-199 or Compound A2, HPB-ALL (Example 9); assay type: cell-based; conditions: Homo sapiens, HPBALL, single agent or 1/1 combination as labelled
Experimental: as §1

MM1S (MM) = experiment: CellTiter-Glo viability 72 h, single agent or 1/1 combination, MM1S (Example 9); assay type: cell-based; conditions: Homo sapiens, MM1.S, single agent or 1/1 combination as labelled
Experimental: as §1

ALL-SILL (T-ALL) = experiment: CellTiter-Glo viability 72 h, single agent or 1/1 combination, ALL-SIL (Example 9); assay type: cell-based; conditions: single agent or 1/1 combination as labelled
Experimental: Cell lines were cultured in the media described above at 37° C. in a humidified atmosphere containing 5% CO2. […] Effects of payloads or ADCs on cell viability were assessed after 3 days of incubation at 37° C./5% CO2 by quantification of cellular ATP levels using CellTiter-Glo reagent (Promega Ref: G7571) at 75 μL reagent/well. All the conditions were tested in triplicates. Luminescence was quantified on a multipurpose plate reader. IC50s were calculated using standard four-parametric curve fitting.

H1650 cells = experiment: CellTiterGlo (CTG) cell viability, 3D, 120 h, H1650 (Example 8); assay type: cell-based, human; conditions: Homo sapiens, NCI-H1650, H1650 3D
ncih1436 = experiment: In vitro ADC activity with combination partners, CellTiter-Glo 5 days, ncih1436 (Example 13); assay type: cell-based; conditions: single agent
Experimental: (§2) Antibody drug conjugates (ADCs) targeting IgG, B7H3, CD56, DLK1, DLL3, EpCAM, and SEZ6 were tested against cancer cell lines obtained from ATCC (American Type Culture Collection) or from other commercial cell line vendors (cor1279, ncih1436, ncih146, ncih211, ncih524). The cells were cultured in media that is optimal for their growth at 5% CO2, 37° C. in a tissue culture incubator. Prior to seeding for the proliferation assay, the cells were split at least 2 days before the assay to ensure optimal growth density. On the day of seeding, cells were lifted off tissue culture flasks using 0.25% trypsin. Cell viability and cell density were determined using a cell counter (Vi-Cell XR Cell Viability Analyzer, Beckman Coulter). Cells with higher than 85% viability were seeded in white clear bottom 384-well plates (Greiner cat #781098) at a density of 1000 cells per well in 50 μL of standard growth media. Plates were incubated at 37° C. overnight in a tissue culture incubator.
(§3) The ADCs were prepared in standard phosphate buffered solution to desired concentrations. A series of 10 dilutions were made for each ADC. The prepared drug treatments were then added to the cells resulting in final concentrations of 300 nM to 0.015 nM. Combination partners (Venetoclax and Topotecan) were added at fixed concentrations. Acoustic transfer devices (Echo525, Echo550, Beckman Coulter) were used to add the ADCs or combination partners to the cells. Each treatment was tested in triplicate assay plates. Plates were incubated at 37° C. overnight or for 5 days in a tissue culture incubator. The ability of the ADCs to inhibit cell proliferation and survival was assessed using the Promega CellTiter-Glo® proliferation assay. Plates were incubated at room temperature for 20 minutes to stabilize luminescent signals prior to reading using a multimode plate reader (Pherastar, BMG). Luminescent counts of untreated cells were taken the day after seeding (Day 0 readings), and after 5 days of treatment (Day 5 readings). The Day 5 readings of the untreated cells were compared to the Day 0 readings. Assays with at least one cell doubling during the incubation period were considered valid. To evaluate the effect of the drug treatments, luminescent counts from wells containing untreated cells (100% viability) were used to normalize treated samples. The concentrations of treatment required to inhibit 50% of cell growth or survival ([…]) were calculated using a four parameter logistic regression equation.

ncih211 = experiment: In vitro ADC activity with combination partners, CellTiter-Glo 5 days, ncih211 (Example 13); assay type: cell-based; conditions: single agent
Experimental: as §2, §3

ncih524 = experiment: In vitro ADC activity with combination partners, CellTiter-Glo 5 days, ncih524 (Example 13); assay type: cell-based; conditions: single agent
Experimental: as §2, §3

ncih146 = experiment: In vitro ADC activity with combination partners, CellTiter-Glo 5 days, ncih146 (Example 13); assay type: cell-based; conditions: single agent
Experimental: as §2, §3

corl279 = experiment: In vitro ADC activity with combination partners (Venetoclax, Topotecan), CellTiter-Glo 5 days, corl279 (Example 13); assay type: cell-based; conditions: single agent
Experimental: as §2, §3

[1] = system: H1650 human non-small cell lung carcinoma (NSCLC) model; experiment: In vivo efficacy of EGFR2-Bcl-xL inhibitor ADC in combination with docetaxel, H1650 xenografts (Example 15); parameters: species or system female SCID mice; conditions: Vehicle iv + docetaxel 7.5 mg/kg qdx1 iv 24 h later
Experimental: H1650 cells were cultured at 37° C. in an atmosphere of 5% CO2 in air in RPMI1640 (BioConcept Ltd. Amimed, #1-41F01-1) supplemented with 10% FCS (BioConcept Ltd. Amimed, #2-01F30-1), 2 mM L-glutamine (BioConcept Ltd. Amimed, #5-10K00-H) and 1 mM sodium pyruvate (BioConcept Ltd. Amimed, #5-60F00-H), 10 mM HEPES (Gibco #11560496) and D-glucose 1.25g/500 mL medium (Gibco, #A24940-01). To establish H1650 xenografts, cells were harvested and re-suspended in HBSS (Gibco, #14175)/Matrigel (Corning #354234) (1:1 v/v) before injecting 100 μL containing 5×10^6 cells subcutaneously in the flanks of female SCID mice (Taconic, Europe). Tumor growth was monitored regularly post cell inoculation and animals were randomized into treatment groups (n=6) with a mean tumor volume of about 150 mm^3. The ADCs were administered intravenously (i.v.) once at the start of treatment at 30 mg/kg in combination with 7.5 mg/kg docetaxel (Zentiva: 1 ml/20 mg) which was administered i.v. once 24 h after the ADCs. Doses were adjusted to individual mouse body weights. The i.v. dose volume was 10 ml/kg and each ADC was dissolved in 0.9% (w/v) NaCl in water and the docetaxel stock solution was diluted to appropriate concentration with 5% (w/v) sterile glucose solution prior to administration.
Tumor volume data on day 21 and 28 post treatment initiation were analyzed for statistical difference relative to vehicle control group and EGFR-Bcl-xLi (L109A-P1) ADC, using one way ANOVA post hoc Tukey's multiple comparisons test (Indigo Software). Results are presented as mean±SEM.
As a measure of efficacy the %T/C value was calculated on day 21 according to:
(Δtumor volume treated/Δtumor volume control)*100 Tumor regression was calculated according to:
−(Δtumor volume treated/tumor volume treated at start)*100
Where Δtumor volumes represent the mean tumor volume on the evaluation day minus the mean tumor volume at the start of the experiment.

[2] = mean, read-out: SUDHL8 (DLBCL) IC50 mean
[3] = n1, read-out: SUDHL8 (DLBCL) IC50 n1
[4] = n2, read-out: SUDHL8 (DLBCL) IC50 n2
[5] = mean, read-out: LOUCY (T-ALL) IC50 mean
[6] = n1, read-out: LOUCY (T-ALL) IC50 n1
[7] = n2, read-out: LOUCY (T-ALL) IC50 n2
[8] = mean, read-out: HPB-ALL (T-ALL) IC50 mean
[9] = n1, read-out: HPB-ALL (T-ALL) IC50 n1
[10] = n2, read-out: HPB-ALL (T-ALL) IC50 n2
[11] = mean, read-out: MM1S (MM) IC50 mean
[12] = n1, read-out: MM1S (MM) IC50 n1
[13] = n2, read-out: MM1S (MM) IC50 n2
[14] = mean, read-out: ALL-SILL (T-ALL) IC50 mean
[15] = n1, read-out: ALL-SILL (T-ALL) IC50 n1
[16] = n2, read-out: ALL-SILL (T-ALL) IC50 n2

SMILES	pIC50 (SUDHL8 (DLBCL); [2])	pIC50 (SUDHL8 (DLBCL); [3])	pIC50 (SUDHL8 (DLBCL); [4])	pIC50 (LOUCY (T-ALL); [5])	pIC50 (LOUCY (T-ALL); [6])	pIC50 (LOUCY (T-ALL); [7])	pIC50 (HPB-ALL (T-ALL); [8])	pIC50 (HPB-ALL (T-ALL); [9])	pIC50 (HPB-ALL (T-ALL); [10])	pIC50 (MM1S (MM); [11])	pIC50 (MM1S (MM); [12])	pIC50 (MM1S (MM); [13])	pIC50 (ALL-SILL (T-ALL); [14])	pIC50 (ALL-SILL (T-ALL); [15])	pIC50 (ALL-SILL (T-ALL); [16])	GI Amax ncih1436 (ncih1436)	GI Amax ncih211 (ncih211)	GI Amax ncih524 (ncih524)	GI Amax ncih146 (ncih146)	GI Amax corl279 (corl279)	also measured
CC1(C)CCC(CN2CCN(c3ccc(C(=O)NS(=O)(=O)c4ccc(NCC5CCOCC5)c([N+](=O)[O-])c4)c(Oc4cnc5[nH]ccc5c4)c3)CC2)=C(c2ccc(Cl)cc2)C1 [ABT-199, reference compound]	5.21	5.32	5.13	7.61	7.72	7.52	5.04	5.05	5.04	5.34	5.35	5.34	6.65	6.63	6.67						
Cc1c(N(C(=O)c2cc(-c3cc(Cl)ccc3C(=O)N3Cc4ccccc4C[C@H]3CN3CCOCC3)n(C)c2C)c2ccc(O)cc2)cc(C#N)n1C [Compound A2, reference compound]	5.24	5.18	5.32	7.45	7.52	7.39	5.22	5.23	5.20	5.13	5.13	5.13	6.90	6.89	6.92						
Cc1c(Nc2nc3ccccc3s2)nnc2c1CCCN2c1ccc(-c2cnn(CC34CC5(C)CC(C)(C3)CC(OCCNCCCO)(C5)C4)c2C)c(C(=O)O)n1 [P25, 6-[3-(1,3-benzothiazol-2-ylamino)-4-methyl-6,7-dihydro-5H-pyrido[2,3-c]pyridazin-8-yl]-3-[1-[[3-[2-(3-hydroxypropylamino)ethoxy]-5,7-dimethyl-1-adamantyl]methyl]-5-methyl-pyrazol-4-yl]pyridine-2-carboxylic acid]	8.11	8.23	8.02	8.99	9.10	8.90	8.34	8.38	8.30	7.13	7.25	7.03	8.76	8.68	8.86						pIC50 (H1650 cells; experiment n1, read-out: H1650 3D CTG IC50 n1): 8.55; pIC50 (H1650 cells; experiment n2, read-out: H1650 3D CTG IC50 n2): 8.52; pIC50 (H1650 cells; mean of n1 and n2, read-out: H1650 3D CTG IC50 Mean of n1 and n2): 8.54
CC[C@@]1(O)C(=O)OCc2c1cc1n(c2=O)Cc2cc3c(CN(C)C)c(O)ccc3nc2-1 [Topotecan, topotecan]																−23.22	−89.36	−83.85	−91.77	−95.95	GI50 (ncih1436; Homo sapiens, NCI-H1436, 120 h): 0.515 µM; GI50 (ncih211; Homo sapiens, NCI-H211, 120 h): 0.0125 µM; GI50 (ncih524; Homo sapiens, NCI-H524, 120 h): 0.00827 µM; GI50 (ncih146; Homo sapiens, NCI-H146, 120 h): 0.00304 µM; GI50 (corl279; Homo sapiens, COR-L279, 120 h): 0.0152 µM
CC1(C)CCC(CN2CCN(c3ccc(C(=O)NS(=O)(=O)c4ccc(NCC5CCOCC5)c([N+](=O)[O-])c4)c(Oc4cnc5[nH]ccc5c4)c3)CC2)=C(c2ccc(Cl)cc2)C1 [Venetoclax, venetoclax]																13	30.85	105.21	−16.83	98.71	GI50 (ncih1436): 4.92 µM; GI50 (ncih211): 3.92 µM; GI50 (ncih524): > 10 µM; GI50 (ncih146): 0.789 µM; GI50 (corl279): > 10 µM
CC(=O)O[C@@]12CO[C@@H]1C[C@H](O)[C@@]1(C)C(=O)[C@H](O)C3=C(C)[C@@H](OC(=O)[C@H](O)[C@@H](NC(=O)OC(C)(C)C)c4ccccc4)C[C@@](O)([C@@H](OC(=O)c4ccccc4)[C@H]21)C3(C)C [docetaxel]																					Response on day 21 T/C (%) ([1]; day 21): 51%; ΔTumor volume (mm^3) D21 ([1]; day 21, mean): 396.59 mm^3; Maximum regression (day) ([1]; maximum on D7): −1; Significance On D21 vs Isotype-DANAPA-L109A-P1-ADC group ([1]; vs IgG CysMab DANAPA-L109A-P1 ADC + docetaxel, printed with (growth)): P < 0.05 (growth)
